# Measured values: patent US20250025454A1 (priority 2021, published 2025)
# Where “and” joins values, the source holds several entries; their conditions need not be identical. Equal entries are not always repeated. Entries after “also recorded” stand apart in the source; their conditions may differ.
# Test: Pharmacokinetics (plasma, lung at 24 h) after single oral dosing in male Sprague-Dawley rats
# Settings: for AUC∞ / t1/2 / Cmax / AUC(0-t) / AUC(0-inf) / Tmax: male SD rat plasma; for AUC(0-t): AUClast
# [1] = single oral 250 mg/kg (Group 1), individual rats 450, 451, 452, listed as MDL-001, 250 mg/kg
# [2] = male, Sprague-Dawley, rat, in vivo, po, 250 mg/kg, single oral 250 mg/kg (Group 1), mean
# [3] = male, Sprague-Dawley, rat, in vivo, po, 500 mg/kg, single oral 500 mg/kg (Group 2), individual rats 453, 454, 455
# [4] = male, Sprague-Dawley, rat, in vivo, po, 500 mg/kg, single oral 500 mg/kg (Group 2), mean
# [5] = male, Sprague-Dawley, rat, in vivo, po, 750 mg/kg, single oral 750 mg/kg (Group 3), individual rats 456, 457, 458
# [6] = male, Sprague-Dawley, rat, in vivo, po, 750 mg/kg, single oral 750 mg/kg (Group 3), mean
# [7] = male, Sprague-Dawley, rat, in vivo, po, 1000 mg/kg, single oral 1000 mg/kg (Group 4), one outlier excluded, mean
smiles,measurement,setting,value
"Cc1c(-c2ccc(O)cc2)n(Cc2ccc(OCCN3CCCCC3)cc2)c2ccc(O)cc12 [Pipendoxifene, 2-(4-hydroxyphenyl)-3-methyl-1-[[4-(2-piperidin-1-ylethoxy)phenyl]methyl]indol-5-ol]",Lung C24 h over SARS-CoV-2 IC50,250 mg/kg,9.7 fold
same,Lung C24 h over SARS-CoV-2 IC50,500 mg/kg,13.7 fold
same,Lung C24 h over SARS-CoV-2 IC50,1000 mg/kg,40.9 fold
same,Lung C24 h over SARS-CoV-2 IC50,6750 mg/kg (so in the source),13.3 fold
same,Lung C24 h over SARS-CoV-2 IC50,"'higher dose', sentence in the rat section",5.4 fold
same,AUC∞,[1],4.132 µg·h/mL and 5.119 µg·h/mL and 2.549 µg·h/mL
same,t1/2,[1],3.83 h and 8.95 h and 5.42 h
same,t1/2,"single oral 250 mg/kg (Group 1), mean, listed as MDL-001, 250 mg/kg",6.06 h
same,Cmax,"single oral 1000 mg/kg (Group 4), one outlier excluded, individual rats 459, 460, 461, listed as MDL-001, 1000 mg/kg",0.501 µg/mL
same,AUC∞,"single oral 1000 mg/kg (Group 4), one outlier excluded, individual rats 459, 460, listed as MDL-001, 1000 mg/kg",7.888 µg·h/mL
same,adverse reactions / tolerability,"male SD rat, single PO dose 250-1000 mg/kg, listed as MDL-001",well tolerated with no adverse clinical signs; also recorded: No adverse reactions were observed
same,Kp at 24 h,"male, Sprague-Dawley, rat, in vivo, Lung/Plasma C24 h ratios, range, Day 1, across the dose range",97 to 122
same,AUC(0-t),"male, Sprague-Dawley, rat, in vivo, po, 250 mg/kg, single oral 250 mg/kg (Group 1), individual rats 450, 451, 452",4.04 µg·h/mL
same,AUC(0-t),[2],3.52 ± 0.98 µg·h/mL
same,AUC(0-inf),[2],3.93 µg·h/mL
same,Cmax,"male, Sprague-Dawley, rat, in vivo, po, 250 mg/kg, Cmax, single oral 250 mg/kg (Group 1), individual rats 450, 451, 452",0.334 µg/mL
same,Cmax,"male, Sprague-Dawley, rat, in vivo, po, 250 mg/kg, Cmax, single oral 250 mg/kg (Group 1), mean",0.311 ± 0.042 µg/mL
same,half-life,"male, Sprague-Dawley, rat, in vivo, po, 250 mg/kg, t1/2, male SD rat plasma, single oral 250 mg/kg (Group 1), mean",6.06 ± 2.62 h
same,Tmax,[2],5.33 ± 1.15 h
same,AUC(0-t),[3],5.73 µg·h/mL
same,AUC(0-inf),[3],6.41 µg·h/mL
same,AUC(0-inf),[4],5.85 µg·h/mL
same,half-life,"male, Sprague-Dawley, rat, in vivo, po, 500 mg/kg, t1/2, male SD rat plasma, single oral 500 mg/kg (Group 2), individual rats 453, 454, 455",6.08 h
same,half-life,"male, Sprague-Dawley, rat, in vivo, po, 500 mg/kg, t1/2, male SD rat plasma, single oral 500 mg/kg (Group 2), mean",5.2 ± 1.34 h
same,Tmax,[3],8 h
same,Tmax,[4],6.67 ± 1.15 h
same,AUC(0-t),[5],7.53 µg·h/mL
same,AUC(0-inf),[5],7.92 µg·h/mL
same,AUC(0-inf),[6],5.52 µg·h/mL
same,Cmax,"male, Sprague-Dawley, rat, in vivo, po, 750 mg/kg, Cmax, single oral 750 mg/kg (Group 3), mean",0.415 ± 0.072 µg/mL
same,half-life,"male, Sprague-Dawley, rat, in vivo, po, 750 mg/kg, t1/2, male SD rat plasma, single oral 750 mg/kg (Group 3), individual rats 456, 457, 458",4.77 h
same,Tmax,[5],8 h
same,Tmax,[6],6.67 ± 1.15 h
same,concentration at 24 h,"male, Sprague-Dawley, rat, in vivo, po, 1000 mg/kg",13400 ng/g
same,AUC(0-t),"male, Sprague-Dawley, rat, in vivo, po, 1000 mg/kg, single oral 1000 mg/kg (Group 4), all data included, mean",6.76 ± 0.93 µg·h/mL
same,AUC(0-t),"male, Sprague-Dawley, rat, in vivo, po, 1000 mg/kg, single oral 1000 mg/kg (Group 4), one outlier excluded, individual rats 459, 460, 461",3.98 µg·h/mL
same,AUC(0-t),[7],5.71 ± 1.73 µg·h/mL
same,AUC(0-inf),[7],6.88 µg·h/mL
same,half-life,"male, Sprague-Dawley, rat, in vivo, po, 1000 mg/kg, t1/2, male SD rat plasma, single oral 1000 mg/kg (Group 4), all data included, individual rats 459, 460, 461",4.3 h
same,half-life,"male, Sprague-Dawley, rat, in vivo, po, 1000 mg/kg, t1/2, male SD rat plasma, single oral 1000 mg/kg (Group 4), all data included, mean",4.88 ± 0.5 h
same,half-life,"male, Sprague-Dawley, rat, in vivo, po, 1000 mg/kg, t1/2, male SD rat plasma, single oral 1000 mg/kg (Group 4), one outlier excluded, individual rats 459, 460",4.3 h
same,half-life,"male, Sprague-Dawley, rat, in vivo, po, 1000 mg/kg, t1/2, male SD rat plasma, single oral 1000 mg/kg (Group 4), one outlier excluded, mean",4.73 h
same,half-life,"male, Sprague-Dawley, rat, in vivo, po, plasma t1/2, range, 250-1000 mg/kg single oral dose",4.71 to 6.06 h
same,concentration at 2 h,"male, Sprague-Dawley, rat, plasma, po, 500 mg/kg, Plasma concentration, male SD rat, single oral 500 mg/kg (Group 2), 2 hr, individual rats 453, 454, 455",0.136 µg/mL
same,concentration at 6 h,"male, Sprague-Dawley, rat, plasma, po, 500 mg/kg, Plasma concentration, male SD rat, single oral 500 mg/kg (Group 2), 6 hr, individual rats 453, 454, 455",0.428 µg/mL
same,concentration at 8 h,"male, Sprague-Dawley, rat, plasma, po, 500 mg/kg, Plasma concentration, male SD rat, single oral 500 mg/kg (Group 2), individual rats 453, 454, 455",0.561 µg/mL
same,concentration at 6 h,"male, Sprague-Dawley, rat, plasma, po, 750 mg/kg, Plasma concentration, male SD rat, single oral 750 mg/kg (Group 3), 6 hr, individual rats 456, 457, 458",0.381 µg/mL
same,concentration at 8 h,"male, Sprague-Dawley, rat, plasma, po, 750 mg/kg, Plasma concentration, male SD rat, single oral 750 mg/kg (Group 3), individual rats 456, 457, 458",0.497 µg/mL
same,AUC(0-t),"male, Sprague-Dawley, rat, plasma, po, 1000 mg/kg, single oral 1000 mg/kg (Group 4), one outlier excluded, individual rats 459, 460, 461",7.44 µg·h/mL
same,AUC(0-inf),"male, Sprague-Dawley, rat, plasma, po, 1000 mg/kg, single oral 1000 mg/kg (Group 4), one outlier excluded, individual rats 459, 460",5.88 µg·h/mL
same,Cmax,"male, Sprague-Dawley, rat, plasma, po, 1000 mg/kg, Cmax, single oral 1000 mg/kg (Group 4), one outlier excluded, individual rats 459, 460, 461",0.365 µg/mL
same,concentration at 6 h,"male, Sprague-Dawley, rat, plasma, po, 1000 mg/kg, Plasma concentration, male SD rat, single oral 1000 mg/kg (Group 4), all data included, 6 hr, individual rats 459, 460, 461",0.365 µg/mL
same,concentration at 4 hr,"male, Sprague-Dawley, rat, plasma, po, 1000 mg/kg, Plasma concentration, male SD rat, single oral 1000 mg/kg (Group 4), one outlier excluded, 4 hr, mean",0.381 µg/mL
same,concentration at 6 hr,"male, Sprague-Dawley, rat, plasma, po, 1000 mg/kg, Plasma concentration, male SD rat, single oral 1000 mg/kg (Group 4), one outlier excluded, 6 hr, individual rats 459, 460, 461",0.365 µg/mL
